One assay deals with T1, Human CaV2.2 channels (Homo sapiens, UniProt Q00975).
T1 construct: expressed in transfected cells
T1 sequence (P54289 947-1103): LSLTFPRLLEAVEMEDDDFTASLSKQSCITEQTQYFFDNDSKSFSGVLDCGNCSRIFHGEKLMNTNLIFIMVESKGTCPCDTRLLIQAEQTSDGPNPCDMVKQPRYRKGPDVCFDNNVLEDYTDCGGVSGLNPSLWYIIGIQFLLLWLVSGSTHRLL
T1 sequence (P54289 25-946): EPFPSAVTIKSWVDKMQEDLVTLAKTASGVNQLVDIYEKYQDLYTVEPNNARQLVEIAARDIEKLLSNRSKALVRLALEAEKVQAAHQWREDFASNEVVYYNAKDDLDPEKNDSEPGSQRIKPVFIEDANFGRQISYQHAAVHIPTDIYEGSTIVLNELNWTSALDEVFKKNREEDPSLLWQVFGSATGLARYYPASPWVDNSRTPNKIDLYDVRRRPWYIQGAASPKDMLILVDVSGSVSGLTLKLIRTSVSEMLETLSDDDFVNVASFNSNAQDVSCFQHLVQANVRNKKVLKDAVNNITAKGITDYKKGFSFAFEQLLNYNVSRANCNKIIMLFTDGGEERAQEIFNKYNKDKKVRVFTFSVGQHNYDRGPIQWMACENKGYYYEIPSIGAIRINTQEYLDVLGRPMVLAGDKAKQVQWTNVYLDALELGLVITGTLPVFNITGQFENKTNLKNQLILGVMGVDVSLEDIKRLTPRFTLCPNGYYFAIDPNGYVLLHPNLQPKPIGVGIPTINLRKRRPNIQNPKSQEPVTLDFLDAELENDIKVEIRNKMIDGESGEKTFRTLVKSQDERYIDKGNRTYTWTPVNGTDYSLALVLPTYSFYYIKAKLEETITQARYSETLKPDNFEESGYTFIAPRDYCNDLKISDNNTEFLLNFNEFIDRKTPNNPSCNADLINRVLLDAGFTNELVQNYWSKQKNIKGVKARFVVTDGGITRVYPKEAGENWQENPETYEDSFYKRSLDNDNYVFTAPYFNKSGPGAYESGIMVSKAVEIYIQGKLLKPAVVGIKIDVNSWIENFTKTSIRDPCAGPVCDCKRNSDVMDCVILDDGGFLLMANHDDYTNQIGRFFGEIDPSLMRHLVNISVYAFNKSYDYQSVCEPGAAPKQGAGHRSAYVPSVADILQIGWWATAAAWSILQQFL
T1 sequence (P54284 whole entry, further chain): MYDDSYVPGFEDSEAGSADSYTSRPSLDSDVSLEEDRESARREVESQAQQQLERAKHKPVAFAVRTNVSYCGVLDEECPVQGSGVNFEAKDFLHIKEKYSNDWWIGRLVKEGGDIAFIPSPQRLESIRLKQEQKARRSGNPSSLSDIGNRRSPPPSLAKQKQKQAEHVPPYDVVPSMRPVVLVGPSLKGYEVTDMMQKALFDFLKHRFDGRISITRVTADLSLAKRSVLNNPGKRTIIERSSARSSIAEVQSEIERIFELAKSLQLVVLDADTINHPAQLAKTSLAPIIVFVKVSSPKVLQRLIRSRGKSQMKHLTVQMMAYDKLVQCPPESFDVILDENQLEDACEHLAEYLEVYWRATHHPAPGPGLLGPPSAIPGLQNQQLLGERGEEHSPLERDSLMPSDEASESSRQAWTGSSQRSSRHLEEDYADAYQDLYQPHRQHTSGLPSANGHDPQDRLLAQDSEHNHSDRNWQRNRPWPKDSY
T1 sequence (Q00975 whole entry): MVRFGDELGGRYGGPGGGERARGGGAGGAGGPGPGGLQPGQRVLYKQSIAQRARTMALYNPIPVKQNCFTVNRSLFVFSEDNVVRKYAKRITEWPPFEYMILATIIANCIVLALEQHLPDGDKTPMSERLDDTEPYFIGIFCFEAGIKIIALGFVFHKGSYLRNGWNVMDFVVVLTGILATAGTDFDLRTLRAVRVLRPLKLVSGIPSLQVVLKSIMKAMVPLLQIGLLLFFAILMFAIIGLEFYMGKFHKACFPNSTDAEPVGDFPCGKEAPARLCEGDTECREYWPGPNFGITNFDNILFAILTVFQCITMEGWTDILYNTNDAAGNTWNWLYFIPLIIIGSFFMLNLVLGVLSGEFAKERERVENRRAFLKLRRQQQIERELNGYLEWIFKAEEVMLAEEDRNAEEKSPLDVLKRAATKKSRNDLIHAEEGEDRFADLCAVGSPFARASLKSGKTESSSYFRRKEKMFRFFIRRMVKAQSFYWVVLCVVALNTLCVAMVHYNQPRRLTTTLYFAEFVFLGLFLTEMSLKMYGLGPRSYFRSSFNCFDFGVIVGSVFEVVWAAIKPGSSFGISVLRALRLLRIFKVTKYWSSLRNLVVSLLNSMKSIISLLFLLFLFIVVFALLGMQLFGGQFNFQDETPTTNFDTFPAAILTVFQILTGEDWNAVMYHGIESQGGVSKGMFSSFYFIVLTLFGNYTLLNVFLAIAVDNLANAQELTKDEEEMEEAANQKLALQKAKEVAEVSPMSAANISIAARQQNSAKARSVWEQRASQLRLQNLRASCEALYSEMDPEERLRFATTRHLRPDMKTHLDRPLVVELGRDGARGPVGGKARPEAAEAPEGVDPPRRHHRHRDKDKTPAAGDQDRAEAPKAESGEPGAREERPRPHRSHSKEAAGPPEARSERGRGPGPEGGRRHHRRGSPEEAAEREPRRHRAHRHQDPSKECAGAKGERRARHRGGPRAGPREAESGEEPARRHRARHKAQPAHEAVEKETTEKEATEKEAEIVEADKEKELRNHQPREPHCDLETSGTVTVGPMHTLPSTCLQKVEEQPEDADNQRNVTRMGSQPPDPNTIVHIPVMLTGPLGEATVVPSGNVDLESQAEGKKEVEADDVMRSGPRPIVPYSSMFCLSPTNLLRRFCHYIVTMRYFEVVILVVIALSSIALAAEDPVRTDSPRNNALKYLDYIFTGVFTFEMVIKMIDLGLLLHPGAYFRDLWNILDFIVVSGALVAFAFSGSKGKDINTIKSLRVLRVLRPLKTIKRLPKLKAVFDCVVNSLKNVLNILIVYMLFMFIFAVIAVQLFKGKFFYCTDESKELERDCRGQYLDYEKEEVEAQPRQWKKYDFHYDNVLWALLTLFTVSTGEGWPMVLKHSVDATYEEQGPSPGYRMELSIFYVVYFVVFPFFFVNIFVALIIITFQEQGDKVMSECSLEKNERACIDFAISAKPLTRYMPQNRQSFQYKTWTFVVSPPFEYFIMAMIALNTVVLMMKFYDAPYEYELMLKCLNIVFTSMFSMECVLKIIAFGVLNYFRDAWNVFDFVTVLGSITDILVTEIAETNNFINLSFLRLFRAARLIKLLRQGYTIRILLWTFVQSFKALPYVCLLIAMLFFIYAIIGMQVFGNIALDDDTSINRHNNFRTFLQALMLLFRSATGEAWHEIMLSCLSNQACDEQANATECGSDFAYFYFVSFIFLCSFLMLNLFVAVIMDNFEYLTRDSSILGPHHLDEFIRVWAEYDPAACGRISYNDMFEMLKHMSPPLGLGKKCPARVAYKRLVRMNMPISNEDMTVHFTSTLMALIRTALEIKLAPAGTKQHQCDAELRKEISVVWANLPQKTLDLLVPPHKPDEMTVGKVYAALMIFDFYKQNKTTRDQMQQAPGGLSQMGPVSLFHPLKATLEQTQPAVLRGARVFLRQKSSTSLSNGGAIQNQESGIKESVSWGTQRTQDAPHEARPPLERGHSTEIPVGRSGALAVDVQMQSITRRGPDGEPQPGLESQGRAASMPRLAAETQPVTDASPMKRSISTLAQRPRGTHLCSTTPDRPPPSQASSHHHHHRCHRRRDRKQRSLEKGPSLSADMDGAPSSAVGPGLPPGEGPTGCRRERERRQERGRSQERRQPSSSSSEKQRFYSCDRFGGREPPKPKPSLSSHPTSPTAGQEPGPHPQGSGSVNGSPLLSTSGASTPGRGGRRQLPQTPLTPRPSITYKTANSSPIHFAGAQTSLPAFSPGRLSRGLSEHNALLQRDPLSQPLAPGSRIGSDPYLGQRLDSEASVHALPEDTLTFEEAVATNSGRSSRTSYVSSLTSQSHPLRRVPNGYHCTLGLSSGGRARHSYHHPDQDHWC
Kind of assay: Fluorescence assay for CaV2.2 channels using potassium depolarization to induce channel opening (FLIPR, Fluo 4). The class given is cell-based. To be noted: 3 μM test compound; alternative assay buffer 30 mM KCl (inactivated channel state); HEK293 cells stably expressing human CaV2.2. The gist of the method:
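HEK293 cells stably co-expressing CaV2.2 with alpha2-delta and beta subunits plus Kir2.3, loaded with 2 μM Fluo 4 and pre-incubated 15 min at 25° C with compound in 1 mM or 30 mM KCl buffer (pH 7.4; latter promotes inactivated state). Depolarized by KCl addition; peak fluorescence amplitude normalized to baseline gives inhibition.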
As for `CC1(S(=O)(=O)c2cccc(OC(F)(F)F)c2)CCOC(c2ncc(S(C)(=O)=O)cc2Cl)C1` (centres unmarked) [SC-219, 3-Chloro-5-methylsulfonyl-2-[4-methyl-4-[[3-(trifluoromethyloxy)-phenyl]sulfonyl]-tetrahydro-pyran-2-yl]-pyridine], the “Activity Category: %-Inhib (CaV2.2) @3 μM @30 mM KCl” value (“Activity Category: %-Inhib” for short) was “A (%-Inhibition >95%)”. `CC1(S(=O)(=O)c2cccc(OC(F)(F)F)c2)CCOC(c2ncc(C(F)(F)F)cc2S(C)(=O)=O)C1` (centres unmarked) [SC-221, 3-Methylsulfonyl-2-[4-methyl-4-[[3-(trifluoromethyloxy)-phenyl]sulfonyl]-tetrahydro-pyran-2-yl]-5-(trifluoromethyl)-pyridine]: the “Activity Category: %-Inhib” value is recorded as “B (%-Inhibition >75% up to ≤95%)”.

For `C[S+]([O-])c1cc(C(F)(F)F)cnc1C1CC(C)(S(=O)(=O)c2cccc(C(F)(F)F)c2)CCO1` (centres unmarked) [SC-229, 3-(Methylsulfinyl)-2-[4-methyl-4-[[3-(trifluoromethyl)phenyl]sulfonyl]-tetrahydro-pyran-2-yl]-5-(trifluoromethyl)-pyridine], the “Activity Category: %-Inhib” value is “B (%-Inhibition >75% up to ≤95%)”. The same measure, in the same setting: next, `C[S+]([O-])c1cc(C(F)(F)F)cnc1C1CC(C)(S(=O)(=O)c2cccc(C(F)(F)F)c2)CCO1` (centres unmarked) [SC-230, 3-(Methylsulfinyl)-2-[4-methyl-4-[[3-(trifluoromethyl)phenyl]sulfonyl]-tetrahydro-pyran-2-yl]-5-(trifluoromethyl)-pyridine]: “B (%-Inhibition >75% up to ≤95%)”; `C[S+]([O-])c1cc(C(F)(F)F)cnc1C1CC(C)(S(=O)(=O)c2cccc(C(F)(F)F)c2)CCO1` (centres unmarked) [SC-231, 3-(Methylsulfinyl)-2-[4-methyl-4-[[3-(trifluoromethyl)phenyl]sulfonyl]-tetrahydro-pyran-2-yl]-5-(trifluoromethyl)-pyridine]: “B (%-Inhibition >75% up to ≤95%)”; `CCC1(S(=O)(=O)c2cccc(C(F)(F)F)c2)CCOC(c2nnc(C(F)(F)F)o2)C1` (centres unmarked) [SC-240, 2-[4-Ethyl-4-[[3-(trifluoromethyl)phenyl]sulfonyl]-tetrahydro-pyran-2-yl]-5-(trifluoromethyl)-[1,3,4]oxadiazole]: “C (%-Inhibition >40% up to ≤75%)”. Still for that read-out and setting: next, `CCC1(S(=O)(=O)c2cccc(C(F)(F)F)c2)CCOC(c2nnc(C(F)(F)F)o2)C1` (centres unmarked) [SC-241, 2-[4-Ethyl-4-[[3-(trifluoromethyl)phenyl]sulfonyl]-tetrahydro-pyran-2-yl]-5-(trifluoromethyl)-[1,3,4]oxadiazole]: “B (%-Inhibition >75% up to ≤95%)”; `CC1(S(=O)(=O)c2cccc(C(F)(F)F)c2)CCOC(c2ccc(Cl)cn2)C1` (centres unmarked) [SC-244, 5-Chloro-2-[4-methyl-4-[[3-(trifluoromethyl)phenyl]sulfonyl]-tetrahydro-pyran-2-yl]-pyridine]: “B (%-Inhibition >75% up to ≤95%)”. Same read-out and setting: next, `COc1cc(OC)c(C2CC(C)(S(=O)(=O)c3cccc(C(F)(F)F)c3)CCO2)cn1` (centres unmarked) [SC-246, 2,4-Dimethoxy-5-[4-methyl-4-[[3-(trifluoromethyl)phenyl]sulfonyl]-tetrahydro-pyran-2-yl]-pyridine]: “A (%-Inhibition >95%)”. As for `COc1cc(OC(F)F)c(C2CC(C)(S(=O)(=O)c3cccc(C(F)(F)F)c3)CCO2)cn1` (centres unmarked) [SC-254, 4-(Difluoro-methoxy)-2-methoxy-5-[4-methyl-4-[[3-(trifluoromethyl)phenyl]sulfonyl]-tetrahydro-pyran-2-yl]-pyridine], the “Activity Category: %-Inhib” value is “A (%-Inhibition >95%)”. On the same count and under the same terms, next, `COc1ncc(C2CC(C)(S(=O)(=O)c3cccc(C(F)(F)F)c3)CCO2)cc1F` (centres unmarked) [SC-256, 3-Fluoro-2-methoxy-5-[4-methyl-4-[[3-(trifluoromethyl)phenyl]sulfonyl]-tetrahydro-pyran-2-yl]-pyridine]: “B (%-Inhibition >75% up to ≤95%)”. Same read-out and setting: next, `COc1cc(F)c(C2CC(C)(S(=O)(=O)c3cccc(C(F)(F)F)c3)CCO2)cn1` (centres unmarked) [SC-258, 4-Fluoro-2-methoxy-5-[4-methyl-4-[[3-(trifluoromethyl)phenyl]sulfonyl]-tetrahydro-pyran-2-yl]-pyridine]: “A (%-Inhibition >95%)”.

The same assay, now with this note: HEK293, 3 μM test compound; alternative assay buffer 30 mM KCl (inactivated channel state); HEK293 cells stably expressing human CaV2.2; read-out: Activity Category: %-Inhib (CaV2.2) @3 μM @30 mM KCl.
`CC1(S(=O)(=O)c2cc(F)cc(C(F)F)c2)CCOC(c2ncc(S(C)(=O)=O)cc2Cl)C1` (centres unmarked) [SC-216, 3-Chloro-2-[4-[[3-(difluoro-methyl)-5-fluoro-phenyl]sulfonyl]-4-methyl-tetrahydro-pyran-2-yl]-5-methylsulfonyl-pyridine]: the inhibition at 3 µM was in the range of 40 to 75%. The same measure, in the same setting: next, `CC1(S(=O)(=O)c2cccc(OC(F)(F)F)c2)CCOC(c2ncc(S(C)(=O)=O)cc2Cl)C1` (centres unmarked) [SC-218, 3-Chloro-5-methylsulfonyl-2-[4-methyl-4-[[3-(trifluoromethyloxy)-phenyl]sulfonyl]-tetrahydro-pyran-2-yl]-pyridine]: 75 to 95%; `CC1(S(=O)(=O)c2cccc(OC(F)(F)F)c2)CCOC(c2ncc(C(F)(F)F)cc2S(C)(=O)=O)C1` (centres unmarked) [SC-220, 3-Methylsulfonyl-2-[4-methyl-4-[[3-(trifluoromethyloxy)-phenyl]sulfonyl]-tetrahydro-pyran-2-yl]-5-(trifluoromethyl)-pyridine]: greater than 95%.

In the case of `CC1(S(=O)(=O)c2cccc(C(F)(F)F)c2)CCOC(c2ncc(S(C)(=O)=O)cc2C(F)(F)F)C1` (centres unmarked) [SC-222, 5-Methylsulfonyl-2-[4-methyl-4-[[3-(trifluoromethyl)phenyl]sulfonyl]-tetrahydro-pyran-2-yl]-3-(trifluoromethyl)-pyridine], the inhibition at 3 µM lay in the range of 75 to 95%. On the same count and under the same terms, next, `COc1cc(S(C)(=O)=O)cnc1C1CC(C)(S(=O)(=O)c2cccc(C(F)(F)F)c2)CCO1` (centres unmarked) [SC-224, 3-Methoxy-5-methylsulfonyl-2-[4-methyl-4-[[3-(trifluoromethyl)phenyl]sulfonyl]-tetrahydro-pyran-2-yl]-pyridine]: 75 to 95%; `CC1(S(=O)(=O)c2cccc(C(F)(F)F)c2)CCOC(c2ncc(Cl)cc2S(C)(=O)=O)C1` (centres unmarked) [SC-226, 5-Chloro-3-methylsulfonyl-2-[4-methyl-4-[[3-(trifluoromethyl)phenyl]sulfonyl]-tetrahydro-pyran-2-yl]-pyridine]: 75 to 95%; `C[S+]([O-])c1cc(C(F)(F)F)cnc1C1CC(C)(S(=O)(=O)c2cccc(C(F)(F)F)c2)CCO1` (centres unmarked) [SC-228, 3-(Methylsulfinyl)-2-[4-methyl-4-[[3-(trifluoromethyl)phenyl]sulfonyl]-tetrahydro-pyran-2-yl]-5-(trifluoromethyl)-pyridine]: greater than 95%. On the same count and under the same terms, next, `C[S+]([O-])c1cnc(C2CC(C)(S(=O)(=O)c3cccc(C(F)(F)F)c3)CCO2)c(Cl)c1` (centres unmarked) [SC-233, 3-Chloro-5-(methylsulfinyl)-2-[4-methyl-4-[[3-(trifluoromethyl)phenyl]sulfonyl]-tetrahydro-pyran-2-yl]-pyridine]: 40 to 75%; `CC1(S(=O)(=O)c2cccc(C(F)(F)F)c2)CCOC(c2ncc(C(F)F)cc2Cl)C1` (centres unmarked) [SC-236, 3-Chloro-5-(difluoro-methyl)-2-[4-methyl-4-[[3-(trifluoromethyl)phenyl]sulfonyl]-tetrahydro-pyran-2-yl]-pyridine]: 75 to 95%. Still for that read-out and setting: next, `CCC1(S(=O)(=O)c2cccc(C(F)(F)F)c2)CCOC(c2noc(C3CC3)n2)C1` (centres unmarked) [SC-238, 5-Cyclopropyl-3-[4-ethyl-4-[[3-(trifluoromethyl)phenyl]sulfonyl]-tetrahydro-pyran-2-yl]-[1,2,4]oxadiazole]: 75 to 95%. Consider `CC1(S(=O)(=O)c2cccc(C(F)(F)F)c2)CCOC(c2ccc(Cl)cn2)C1` (centres unmarked) [SC-243, 5-Chloro-2-[4-methyl-4-[[3-(trifluoromethyl)phenyl]sulfonyl]-tetrahydro-pyran-2-yl]-pyridine], for which the inhibition at 3 µM was greater than 95%. Same read-out and setting: next, `COc1cc(OC)c(C2CC(C)(S(=O)(=O)c3cccc(C(F)(F)F)c3)CCO2)cn1` (centres unmarked) [SC-245, 2,4-Dimethoxy-5-[4-methyl-4-[[3-(trifluoromethyl)phenyl]sulfonyl]-tetrahydro-pyran-2-yl]-pyridine]: 75 to 95%; `COc1cc(C)c(C2CC(C)(S(=O)(=O)c3cccc(C(F)(F)F)c3)CCO2)cn1` (centres unmarked) [SC-248, 2-Methoxy-4-methyl-5-[4-methyl-4-[[3-(trifluoromethyl)phenyl]sulfonyl]-tetrahydro-pyran-2-yl]-pyridine]: 75 to 95%. For the molecule `COc1cc(O)c(C2CC(C)(S(=O)(=O)c3cccc(C(F)(F)F)c3)CCO2)cn1` (centres unmarked) [SC-251, 2-Methoxy-5-[4-methyl-4-[[3-(trifluoromethyl)phenyl]sulfonyl]-tetrahydro-pyran-2-yl]-pyridin-4-ol], the inhibition at 3 µM was in the range of 40 to 75%.

For the molecule `COc1cc(OC(F)F)c(C2CC(C)(S(=O)(=O)c3cccc(C(F)(F)F)c3)CCO2)cn1` (centres unmarked) [SC-253, 4-(Difluoro-methoxy)-2-methoxy-5-[4-methyl-4-[[3-(trifluoromethyl)phenyl]sulfonyl]-tetrahydro-pyran-2-yl]-pyridine], the inhibition at 3 µM is 75 to 95%. The same measure, in the same setting: next, `COc1ncc(C2CC(C)(S(=O)(=O)c3cccc(C(F)(F)F)c3)CCO2)cc1F` (centres unmarked) [SC-255, 3-Fluoro-2-methoxy-5-[4-methyl-4-[[3-(trifluoromethyl)phenyl]sulfonyl]-tetrahydro-pyran-2-yl]-pyridine]: greater than 95%. The same measure, in the same setting: next, `COc1cc(F)c(C2CC(C)(S(=O)(=O)c3cccc(C(F)(F)F)c3)CCO2)cn1` (centres unmarked) [SC-257, 4-Fluoro-2-methoxy-5-[4-methyl-4-[[3-(trifluoromethyl)phenyl]sulfonyl]-tetrahydro-pyran-2-yl]-pyridine]: 75 to 95%.

The values are drawn from US9926302B2, “Heteroaryl substituted heterocyclyl sulfones” (priority 2014, dated 2018).
